# Several values for one entry are separate records, joined by “and”; a condition that tells them apart may be missing. Equal entries are not always repeated. Where two headings read alike, the source gives them in different places. Positions of bridges follow the written chain, without caps; N, C: chain ends. Residues, ends and D or L forms follow the SMILES beside them.
# What was measured:
# rat α9α10 nAChR = biological target: T1, rat α9α10 nAChR (Rattus norvegicus, UniProt P43144+Q9JLB5); assay: cell-based; conditions: for IC50: 500 μM ACh, X. laevis oocytes
# T1 construct: expressed in transfected cells; host or cells: Xenopus laevis oocytes injected with cRNA
# T1 sequence (P43144 26-479): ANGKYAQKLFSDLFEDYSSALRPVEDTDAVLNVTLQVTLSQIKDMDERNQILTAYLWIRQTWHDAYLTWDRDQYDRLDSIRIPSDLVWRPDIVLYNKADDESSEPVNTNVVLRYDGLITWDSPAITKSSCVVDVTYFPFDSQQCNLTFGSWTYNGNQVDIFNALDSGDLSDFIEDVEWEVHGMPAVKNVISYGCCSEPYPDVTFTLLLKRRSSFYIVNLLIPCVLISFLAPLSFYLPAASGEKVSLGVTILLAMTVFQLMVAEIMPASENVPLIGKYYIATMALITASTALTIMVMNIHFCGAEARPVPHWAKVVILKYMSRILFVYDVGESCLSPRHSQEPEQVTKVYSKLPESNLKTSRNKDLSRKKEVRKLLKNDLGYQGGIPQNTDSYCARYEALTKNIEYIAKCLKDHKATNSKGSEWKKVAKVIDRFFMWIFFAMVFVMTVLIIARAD
# T1 sequence (Q9JLB5 25-447): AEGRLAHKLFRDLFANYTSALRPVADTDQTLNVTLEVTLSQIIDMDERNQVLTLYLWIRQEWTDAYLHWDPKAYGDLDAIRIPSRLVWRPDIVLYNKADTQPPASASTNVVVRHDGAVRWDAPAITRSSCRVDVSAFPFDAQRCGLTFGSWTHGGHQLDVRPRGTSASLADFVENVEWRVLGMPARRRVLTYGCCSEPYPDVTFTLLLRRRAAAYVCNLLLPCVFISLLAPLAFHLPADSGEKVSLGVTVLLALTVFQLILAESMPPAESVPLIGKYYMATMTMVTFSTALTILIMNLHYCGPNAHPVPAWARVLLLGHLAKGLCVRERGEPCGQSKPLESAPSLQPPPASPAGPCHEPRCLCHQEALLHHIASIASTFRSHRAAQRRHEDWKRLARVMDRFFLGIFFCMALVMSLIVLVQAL
# human α7 nAChR = biological target: T2, human α7 nAChR (Homo sapiens, UniProt P36544); assay: cell-based; conditions: for inhibition at 500 µM: read-out: Inhibition of PNU282987-evoked response
# T2 construct: α7 nAChR endogenously expressed in neuroblastoma SH-SY5Y cells; endogenous in cells; host or cells: SH-SY5Y human neuroblastoma cells
# T2 sequence (P36544 23-502): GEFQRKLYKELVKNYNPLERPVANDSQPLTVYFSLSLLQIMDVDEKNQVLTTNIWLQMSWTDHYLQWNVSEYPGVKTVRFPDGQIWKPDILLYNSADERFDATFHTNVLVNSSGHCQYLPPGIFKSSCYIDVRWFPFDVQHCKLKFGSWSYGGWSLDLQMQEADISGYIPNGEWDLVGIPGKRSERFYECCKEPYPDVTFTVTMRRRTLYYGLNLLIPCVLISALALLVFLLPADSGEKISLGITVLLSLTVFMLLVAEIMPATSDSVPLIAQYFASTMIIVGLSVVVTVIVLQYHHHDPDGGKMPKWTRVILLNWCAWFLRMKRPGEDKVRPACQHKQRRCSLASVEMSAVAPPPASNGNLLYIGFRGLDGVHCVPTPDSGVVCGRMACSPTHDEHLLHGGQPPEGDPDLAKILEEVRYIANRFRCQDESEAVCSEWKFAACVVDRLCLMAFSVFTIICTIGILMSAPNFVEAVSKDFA
# SH-SY5Y cells = assay: Calcium imaging, effect of compound alone on [Ca2+]i in SH-SY5Y cells; assay type: cell-based, human; conditions: 10 μM, without α7 nAChR activation
# human α9α10 nAChR [1] = biological target: T3, human α9α10 nAChR (Homo sapiens, UniProt Q9GZZ6+Q9UGM1); set-up: method as in Lebedev et al., 2019; conditions: read-out: IC50 on α9α10 nAChR; 95% CI in brackets; ref Lebedev et al., 2019; cited from earlier work
# T3 construct: expressed in transfected cells; host or cells: Xenopus laevis oocytes injected with cRNA
# T3 sequence (Q9UGM1 26-479 limits assumed): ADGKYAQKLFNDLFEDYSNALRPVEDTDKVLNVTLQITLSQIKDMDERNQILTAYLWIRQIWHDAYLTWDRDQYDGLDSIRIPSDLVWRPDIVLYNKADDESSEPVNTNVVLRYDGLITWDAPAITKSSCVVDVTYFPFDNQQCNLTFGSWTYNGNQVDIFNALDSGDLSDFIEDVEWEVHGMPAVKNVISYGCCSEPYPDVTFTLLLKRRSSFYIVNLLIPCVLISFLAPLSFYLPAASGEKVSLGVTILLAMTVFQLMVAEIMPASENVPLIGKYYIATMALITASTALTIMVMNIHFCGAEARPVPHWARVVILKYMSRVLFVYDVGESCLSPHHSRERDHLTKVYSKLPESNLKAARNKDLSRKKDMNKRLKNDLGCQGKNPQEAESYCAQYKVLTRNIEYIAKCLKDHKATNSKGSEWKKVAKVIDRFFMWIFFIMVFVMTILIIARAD
# T3 sequence (Q9GZZ6 25-450): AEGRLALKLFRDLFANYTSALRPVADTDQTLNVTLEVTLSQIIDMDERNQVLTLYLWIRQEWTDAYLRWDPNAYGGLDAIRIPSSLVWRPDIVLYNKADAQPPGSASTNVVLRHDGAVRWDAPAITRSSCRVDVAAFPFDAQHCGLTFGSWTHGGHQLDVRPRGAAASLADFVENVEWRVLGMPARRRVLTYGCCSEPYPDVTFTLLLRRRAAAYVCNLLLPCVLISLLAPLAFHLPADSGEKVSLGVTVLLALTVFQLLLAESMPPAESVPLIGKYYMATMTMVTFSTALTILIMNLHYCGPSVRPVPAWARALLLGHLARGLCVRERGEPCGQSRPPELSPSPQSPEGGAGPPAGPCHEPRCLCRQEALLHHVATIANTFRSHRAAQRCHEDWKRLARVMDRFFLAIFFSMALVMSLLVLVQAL
# human α9α10 nAChR [2] = biological target: T3, human α9α10 nAChR; assay: Two-electrode voltage clamp, human α9α10 nAChR in X. laevis oocytes; assay type: cell-based; conditions: IC50, inhibition of ACh-evoked currents (α9α10 nAChR), 500 μM ACh, mean ± SEM
compound,measurement,setting,value
"CC(CN)CNCCCCNCC(C)CN (racemic) [rac-2,11-Me2Spm]",IC50,"rat α9α10 nAChR; read-out: IC50, inhibition of rat α9α10 nAChR",~500 µM
"N=C(N)NCCC[C@H](N)C(=O)NCCCNCCCNCCCCCNC(=O)[C@H](CC(N)=O)NC(=O)Cc1ccc(O)cc1O [AgTx-636, argiotoxin-636]",inhibition at 10 µM,"human α7 nAChR; SH-SY5Y, read-out: Inhibition of the action of α7 nAChR agonist PNU282987",≥ 70%
same,IC50,"rat α9α10 nAChR; IC50, inhibition of ACh-evoked currents (rat α9α10 nAChR)",~0.2 µM and 0.22 µM
same,[Ca2+]i change caused by the compound alone,SH-SY5Y cells,noticeable [Ca^2+]i increase
"NCCCCN=C(N)N [Agm, agmatine]",inhibition at 500 µM,human α7 nAChR; SH-SY5Y,~20%
"N=C(N)NCCC[C@H](NC(=O)[C@H](CCCNC(=N)N)NC(=O)[C@H](CCCNC(=N)N)NC(=O)[C@H](CCCNC(=N)N)NC(=O)[C@H](CCCNC(=N)N)NC(=O)[C@H](CCCNC(=N)N)NC(=O)[C@H](CCCNC(=N)N)NC(=O)[C@@H](N)CCCNC(=N)N)C(=O)O [R8, octa-arginine]",IC50,human α7 nAChR,0.0145 ± 0.001 µM
same,IC50,human α9α10 nAChR [1],0.044 µM
"NCCCNCCCCNCCCN [Spm, spermine]",inhibition at 500 µM,human α7 nAChR; SH-SY5Y,~20%
same,Inhibition of rat α9α10 nAChR at 500 μM,rat α9α10 nAChR,no inhibition
N=C(N)NCCC[C@@H]1NC(=O)[C@H](CCCNC(=N)N)NC(=O)[C@H](CCCNC(=N)N)NC(=O)[C@H](CCCNC(=N)N)NC(=O)[C@H](CCCNC(=N)N)NC(=O)[C@H](CCCNC(=N)N)NC(=O)[C@H](CCCNC(=N)N)NC(=O)[C@H](CCCNC(=N)N)NC(=O)[C@@H](N)CSSC[C@@H](C(=O)O)NC1=O [“cyclo”R8] (H-CRRRRRRRRC-OH; disulfide 1-10),IC50,human α7 nAChR,0.0133 ± 0.003 µM
same,IC50,human α9α10 nAChR [2],~0.06 µM and 0.0618 µM
α-cobratoxin [CTX],Suppression of α7 nAChR activity,"human α7 nAChR; compound 5 μM, 200 nM PNU282987, SH-SY5Y cells",completely suppressed

# Source: paper PMC10758494 (Frontiers in Pharmacology, 2023)
